Test results as given in patent US10065931B2, “Quinazolin crotyl compound dimaleate crystals and preparation methods and uses thereof” (HANGZHOU HUADONG MEDICINE GROUP BIOPHARMACEUTICAL CO., LTD., priority 2015, dated 2018).
Values after ≈ are worked out from the molar mass of the structure shown. Where two headings read alike, the source gives them in different places.

How the values were obtained:
Assay type in all cases: physicochemical
[1] = Storage stability test, chemical content by HPLC; details: for Initial content: before storage; for Chemical stability, 25° C./60% R.H. One week / Chemical stability, 40° C./75% R.H. One week: chemical content as % of initial content; for Chemical content after storage (in words): one week, 40° C./75% R.H.
[2] = Solubility in water, FaSSIF, FeSSIF and SGF
Procedure: Wherein FaSSIF and FeSSIF were prepared according to the method described in the literature: Study of a Standardized Taurocholate-Lecithin Powder for Preparing the Biorelevant Media FeSSIF and FaSSIF (Kloefer, B., van Hoogevest, P., Moloney, R., Kuentz, M., Leigh, M. L., & Dressman, J. (2010). Dissolution Technologies, August 17(3), 6-14. SGF was prepared according to the method described in the literature Albendazole Generics-A Comparative In Vitro Study (Galia E., Horton, J and Dressman J. (1999) Pharmaceutical Research, 16 (12), […]). The test results are summarized in Table 6.

[3] = Storage stability test, physical stability by XRPD; details: for XRPD pattern after storage (physical stability): one week of storage, 25° C./60% R.H. and 40° C./75% R.H.
Procedure: In the following examples, the XRPD of the crystal form was determined using a PANalytical Empyrean X-ray powder diffraction analyzer, the parameters are summarized in Table 1.

[4] = Second set of competition of stabilities between crystal form K and crystal form F (solid mixture stored 10 days, XRPD)
Excerpt: Then two samples were placed in different environments for 10 days and were subjected to XRPD test respectively.

[5] = Competition of stability between crystal form K and crystal form G in water (XRPD); details: 12 hours stirring, room temperature
Procedure: After 12 hours of stirring under room temperature, the solid was separated by centrifugation and was subjected to XRPD test, the results are shown in FIG. 20.

[6] = First set of competition of stabilities between crystal form K and crystal form F (suspension, different water activities, XRPD); details: room temperature
Procedure: After 12 hours of stirring under room temperature, the solid was isolated by centrifugation and the XRPD thereof was tested.

Compound	Initial content [1] [%]	Chemical stability, 25° C./60% R.H. One week [1] [%]	Chemical stability, 40° C./75% R.H. One week [1] [%]	Chemical content after storage (in words) [1]	Solubility ([2]; FaSSIF, pH 6.5) [mg/mL]	Solubility ([2]; FeSSIF, pH 5.0) [mg/mL]	Solubility ([2]; SGF, pH 1.8) [mg/mL]	Solubility ([2]; Water, pH 7.4) [mg/mL]	XRPD pattern after storage (physical stability) [3]	further results
CN(C)C/C=C/C(=O)Nc1cc2c(Nc3ccc(F)c(Cl)c3)ncnc2cc1OC(F)F [Crystal form E]	100.0	99.8	99.5							
CN(C)C/C=C/C(=O)Nc1cc2c(Nc3ccc(F)c(Cl)c3)ncnc2cc1OC(F)F [Crystal form F]	100.0	99.8	99.7	stable	2.44 (≈ 5.24 mM)	0.57 (≈ 1.22 mM)	>10.65	>9.81	basically the same	Crystal form after storage of crystal form F mixed with about 1% crystal form K ([4]; 25° C., 60% R.H.): form F; Crystal form after storage of crystal form F mixed with about 1% crystal form K ([4]; 25° C., 60% R.H., listed as crystal form F): did not change; Crystal form after storage of crystal form F mixed with about 1% crystal form K ([4]; 40° C., 75% R.H.): form K; Crystal form after storage of crystal form F mixed with about 1% crystal form K ([4]; 40° C., 75% R.H., listed as crystal form F): converted to the crystal form K
CN(C)C/C=C/C(=O)Nc1cc2c(Nc3ccc(F)c(Cl)c3)ncnc2cc1OC(F)F [Crystal form G]	100.0	99.8	99.6	stable						Crystal form after competition with crystal form K in saturated water solution [5]: converted to crystal form K
CN(C)C/C=C/C(=O)Nc1cc2c(Nc3ccc(F)c(Cl)c3)ncnc2cc1OC(F)F [Crystal form K]	100.0	99.9	99.8	stable	8.36 (≈ 17.9 mM)	1.24 (≈ 2.66 mM)	>9.95	>10.02	basically the same	Water activity at which crystal form K is thermodynamically more stable than crystal form F [6]: greater than or equal to 0.15; Crystal form after competition with crystal form F ([6]; water activity 0.00, IPA, 12 hours stirring): Crystal form F; Crystal form after competition with crystal form F ([6]; water activity 0.15, IPA:H2O 99:1, 12 hours stirring): Crystal form K; Crystal form after competition with crystal form F ([6]; water activity 0.39, IPA:H2O 24:1, 12 hours stirring): Crystal form K; Crystal form after competition with crystal form F ([6]; water activity 0.60, ACN:H2O 19:1, 12 hours stirring): Crystal form K; Crystal form after competition with crystal form F ([6]; water activity 0.80, ACN:H2O 9:1, 12 hours stirring): Crystal form K; XRPD pattern after storage (physical and chemical stability) ([3]; 6 months of storage, 40° C./75% R.H.): basically the same
CN(C)C/C=C/C(=O)Nc1cc2c(Nc3ccc(F)c(Cl)c3)ncnc2cc1OC(F)F [Free base]	100.0	99.8	94.8		0.03 (≈ 0.0644 mM)	0.10 (≈ 0.215 mM)		<0.0025	changed significantly	Chemical stability, 40° C./75% R.H. One week ([1]; listed as free base): 94.8%; Water solubility (in words) [2]: poor; Solubility ([2]; SGF, pH 1.8, simulated gastric fluid, thermodynamic from solid, SGF, pH 1.8, read-out: Solubility): 8.37 mg/mL (≈ 18 mM); Long-term storage stability (in words) [3]: poor
